We go through 12 compounds from PubChem BioAssay (NCI).

Among the test systems are A498 renal; COLO 205 colon; EKVX NSCLC; MALME-3M melanoma; OVCAR-5 ovarian; OVCAR-8 ovarian; RXF 393 renal; SF-539 CNS; SK-OV-3 ovarian; UACC-62 melanoma.
What all share (assay): NCI tumour cell line growth inhibition, 48 h

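Where inhibition never reached the appropriate level, the endpoint shown equals the highest concentration tested. Otherwise, values were interpolated linearly from a five-concentration, 48-hour dose response in 96-well plates. GI50 = concentration required for 50% inhibition of growth. TGI marks complete inhibition of growth.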 A value given as a limit tells only on which side of the number the result lay.

As for `Fc1cccc(-n2ccc(-c3ccccc3)nc2=S)c1`, the GI50 is 17.2 µM with A498 renal; 17.7 µM with EKVX NSCLC; 65.3 µM in the test on MALME-3M melanoma; greater than 94.4 µM in the test with OVCAR-5 ovarian; 26.6 µM with OVCAR-8 ovarian; 15.8 µM in the test with RXF 393 renal. For the same compound, the GI50 was 17.6 µM in the test with SF-539 CNS, 1.59 µM with SK-OV-3 ovarian and greater than 54.6 µM with UACC-62 melanoma. Further, the TGI in the test on A498 renal was 33.3 µM; in the test with COLO 205 colon it was 3.82 µM; in the test on EKVX NSCLC, 33.4 µM; in the test on MALME-3M melanoma, greater than 100 µM; with OVCAR-5 ovarian it was greater than 100 µM; with OVCAR-8 ovarian, greater than 57.7 µM. Also, the TGI with RXF 393 renal is 30 µM; with SF-539 CNS, 38.9 µM; in the test with SK-OV-3 ovarian, 44.9 µM; with UACC-62 melanoma it was greater than 100 µM.

For `CC(=[N-])N1CCC[C@@H](Nc2c3ccccc3nc3ccccc23)C1.[Cl][Pt].[NH-]CCC[NH-]`, the GI50 was 0.221 µM in the test on A498 renal; 0.431 µM with COLO 205 colon; 2.17 µM in the test with EKVX NSCLC; 1.49 µM with MALME-3M melanoma; 2.89 µM in the test with OVCAR-5 ovarian; 1.04 µM in the test with OVCAR-8 ovarian. Moreover, the GI50 in the test on RXF 393 renal was 1.25 µM; in the test on SF-539 CNS, 2.53 µM; in the test with SK-OV-3 ovarian it was 2.43 µM; in the test on UACC-62 melanoma, 0.0295 µM. The TGI in the test on A498 renal was 0.656 µM; in the test with COLO 205 colon, 2.69 µM; in the test with EKVX NSCLC, 36 µM; in the test on MALME-3M melanoma it was 4.51 µM; in the test with OVCAR-5 ovarian, 36.4 µM; in the test on OVCAR-8 ovarian, greater than 100 µM. Moreover, the TGI in the test with RXF 393 renal is 2.96 µM; with SF-539 CNS, 18.1 µM; with SK-OV-3 ovarian it was greater than 100 µM; in the test with UACC-62 melanoma, 0.114 µM.

For `CC(=O)O[C@H]1[C@@H]2OC(=O)C(CSc3ccccc3)[C@@H]2C[C@H]2O[C@]2(C)CC/C=C(\C)CCC[C@@H]1C` (some centres undefined), the GI50 was 2.17 µM with A498 renal; 1.75 µM in the test on COLO 205 colon; 3.27 µM with EKVX NSCLC; 4.05 µM with MALME-3M melanoma; 12.4 µM in the test with OVCAR-5 ovarian; 3.77 µM in the test on OVCAR-8 ovarian. The GI50 with RXF 393 renal is 1.88 µM; in the test with SF-539 CNS, 9.4 µM; in the test with SK-OV-3 ovarian, 13.6 µM; in the test on UACC-62 melanoma, 4.65 µM. Besides, the TGI in the test on A498 renal turned out to be 6.37 µM; in the test with COLO 205 colon it was 3.9 µM; in the test on EKVX NSCLC it was 12.9 µM; with MALME-3M melanoma it was 19.5 µM; in the test with OVCAR-5 ovarian, 33.7 µM; with OVCAR-8 ovarian it was 29.5 µM. In addition, the TGI came to 3.79 µM with RXF 393 renal, 23.3 µM in the test on SF-539 CNS, 57 µM in the test on SK-OV-3 ovarian and 14.8 µM in the test on UACC-62 melanoma.

With `CC1=C(/C=C/C(C)=C/C=C/C(C)=C/C(=O)O)C(C)(C)CCC1`, the TGI was greater than 91.1 µM in the test on A498 renal; 63.6 µM in the test on COLO 205 colon; greater than 100 µM in the test with EKVX NSCLC; greater than 75.6 µM in the test with MALME-3M melanoma; greater than 85.4 µM in the test with OVCAR-5 ovarian; greater than 77.9 µM with OVCAR-8 ovarian. Further, the TGI was greater than 81.5 µM in the test with RXF 393 renal, 75.7 µM in the test on SF-539 CNS, greater than 100 µM with SK-OV-3 ovarian and greater than 77.4 µM with UACC-62 melanoma.

In the case of `CCCCCCCCCNC(=O)/C=C/c1ccc(O)c(O)c1`, the GI50 in the test on A498 renal was 16.2 µM; with COLO 205 colon, 15.3 µM; in the test with EKVX NSCLC, 37.5 µM; with MALME-3M melanoma it was 13.2 µM; in the test on OVCAR-5 ovarian it was 21.5 µM; with OVCAR-8 ovarian, 24 µM. The GI50 in the test on RXF 393 renal was 19.2 µM; with SF-539 CNS, 15.1 µM; in the test on SK-OV-3 ovarian, 19.4 µM; in the test on UACC-62 melanoma, 15.3 µM. Moreover, the TGI with A498 renal is 32.1 µM; in the test on COLO 205 colon, 54.3 µM; with EKVX NSCLC, greater than 100 µM; in the test with MALME-3M melanoma it was 31.4 µM; in the test on OVCAR-5 ovarian, 45.8 µM; in the test on OVCAR-8 ovarian, 59.3 µM. Besides, the TGI in the test with RXF 393 renal worked out at 50.9 µM; in the test with SF-539 CNS, 38.2 µM; with SK-OV-3 ovarian, 49.5 µM; with UACC-62 melanoma it was 29 µM.

As for `O=[N+]([O-])c1cc(C(F)(F)F)ccc1Sc1ccc(C(F)(F)F)cc1[N+](=O)[O-]`, the GI50 is 7.22 µM in the test with A498 renal; 41.8 µM in the test with COLO 205 colon; 41.7 µM in the test with EKVX NSCLC; 17.5 µM in the test on MALME-3M melanoma; 43 µM in the test on OVCAR-5 ovarian; 6.1 µM in the test on OVCAR-8 ovarian. Also, the GI50 is 11.4 µM in the test on RXF 393 renal, 9.15 µM with SF-539 CNS, 7.65 µM with SK-OV-3 ovarian and 5.27 µM with UACC-62 melanoma. For the same compound, the TGI with A498 renal was 30.6 µM; in the test on COLO 205 colon, greater than 100 µM; with EKVX NSCLC, greater than 100 µM; with MALME-3M melanoma, greater than 100 µM; in the test on OVCAR-5 ovarian, greater than 100 µM; in the test on OVCAR-8 ovarian it was greater than 100 µM. Moreover, the TGI with RXF 393 renal, in the test on SF-539 CNS, with SK-OV-3 ovarian and with UACC-62 melanoma was greater than 100 µM each time.

Take `CC(CN(C)C)Oc1ccccc1NC1=C(Cl)C(=O)C(Nc2ccccc2OC(C)CN(C)C)=C(Cl)C1=O` (centres undefined): the GI50 in the test with A498 renal is 1.51 µM; with COLO 205 colon, 0.174 µM; with EKVX NSCLC, 0.685 µM; in the test on MALME-3M melanoma, 0.605 µM; in the test on OVCAR-5 ovarian, 0.935 µM; with OVCAR-8 ovarian, 0.337 µM. The GI50 in the test with RXF 393 renal is 0.663 µM; in the test with SF-539 CNS it was 1.44 µM; in the test on SK-OV-3 ovarian, 2.29 µM; in the test on UACC-62 melanoma, 1.55 µM. The TGI in the test with A498 renal amounted to 2.86 µM; with COLO 205 colon it was 0.359 µM; with EKVX NSCLC, 1.81 µM; in the test on MALME-3M melanoma, 1.38 µM; with OVCAR-5 ovarian, 2.44 µM; in the test on OVCAR-8 ovarian, 1.71 µM. Further, the TGI was found to be 2.03 µM in the test with RXF 393 renal, 2.76 µM with SF-539 CNS, 5.43 µM in the test on SK-OV-3 ovarian and 3.05 µM with UACC-62 melanoma.

Consider `O=C(Nc1cccc(-c2ccc(Cl)c(C(F)(F)F)c2)c1)C1CCN(Cc2cccc3cccnc23)CC1`, for which the GI50 in the test with A498 renal is 1.33 µM; in the test with COLO 205 colon, 1.45 µM; in the test on EKVX NSCLC, 1.73 µM; in the test on MALME-3M melanoma it was 1.65 µM; with OVCAR-5 ovarian it was 1.57 µM; in the test with OVCAR-8 ovarian, 1.93 µM. Further, the GI50 with RXF 393 renal is 1.27 µM; with SF-539 CNS, 1.76 µM; with SK-OV-3 ovarian it was 1.76 µM; in the test with UACC-62 melanoma, 1.69 µM. In addition, the TGI turned out to be 2.65 µM in the test on A498 renal; 3.12 µM with COLO 205 colon; 3.15 µM in the test on EKVX NSCLC; 3.08 µM in the test on MALME-3M melanoma; 2.92 µM in the test on OVCAR-5 ovarian; 4.19 µM with OVCAR-8 ovarian. In addition, the TGI with RXF 393 renal was 2.61 µM; in the test with SF-539 CNS, 3.16 µM; in the test on SK-OV-3 ovarian it was 3.37 µM; with UACC-62 melanoma it was 3.09 µM.

In the case of `COc1ccc2oc(C(=O)O)c3c2c1CCC3CCC(=O)O` (centres undefined), the TGI in the test with A498 renal, in the test on COLO 205 colon, in the test with EKVX NSCLC, in the test on MALME-3M melanoma, with OVCAR-5 ovarian and in the test on OVCAR-8 ovarian was greater than 100 µM throughout. The TGI with RXF 393 renal, in the test with SF-539 CNS, with SK-OV-3 ovarian and in the test on UACC-62 melanoma was greater than 100 µM each time.

Consider `Cc1cn2c(/C=N/N=C(N)N)c(-c3ccccn3)nc2s1`, for which the GI50 is 17.8 µM with A498 renal; 11.3 µM in the test with COLO 205 colon; 8.37 µM with EKVX NSCLC; 21.8 µM with MALME-3M melanoma; 22.3 µM in the test on OVCAR-5 ovarian; 13.9 µM in the test with OVCAR-8 ovarian. Also, the GI50 is 5.9 µM in the test on RXF 393 renal, 3.35 µM with SF-539 CNS, 26.8 µM in the test on SK-OV-3 ovarian and 15.9 µM in the test with UACC-62 melanoma. The TGI was 34 µM in the test on A498 renal; 42 µM with COLO 205 colon; 25.8 µM in the test with EKVX NSCLC; 44.4 µM in the test with MALME-3M melanoma; 46 µM in the test on OVCAR-5 ovarian; greater than 56.2 µM in the test with OVCAR-8 ovarian. Further, the TGI in the test on RXF 393 renal was 18.1 µM; with SF-539 CNS, 14.4 µM; in the test on SK-OV-3 ovarian it was greater than 65 µM; in the test with UACC-62 melanoma, 31.6 µM.

Consider `O=C(N/N=C/c1ccc(O)cc1O)c1cccc(Nc2ccnc(C(F)(F)F)c2)c1`, for which the GI50 was 12.8 µM in the test on A498 renal; 0.554 µM in the test on COLO 205 colon; 1.32 µM in the test on EKVX NSCLC; 1.32 µM with MALME-3M melanoma; 6.28 µM in the test on OVCAR-5 ovarian; 0.716 µM in the test on OVCAR-8 ovarian. The GI50 is 2.48 µM in the test with RXF 393 renal, 0.967 µM with SF-539 CNS, 1.22 µM in the test on SK-OV-3 ovarian and 0.33 µM in the test with UACC-62 melanoma. In addition, the TGI in the test with A498 renal was greater than 51 µM; in the test on COLO 205 colon it was 15 µM; in the test on EKVX NSCLC it was 37.3 µM; in the test with MALME-3M melanoma, 11.5 µM; with OVCAR-5 ovarian, 66.8 µM; in the test with OVCAR-8 ovarian it was 32.9 µM. The TGI in the test with RXF 393 renal turned out to be 17.4 µM; in the test on SF-539 CNS it was 7.74 µM; in the test with SK-OV-3 ovarian, 18.3 µM; in the test on UACC-62 melanoma, 7.37 µM.

For the compound `O=C(O/N=C1/CCC/C1=C\c1ccccc1)c1ccc(Cl)c(Cl)c1`, the TGI in the test with A498 renal, with COLO 205 colon, with EKVX NSCLC, with MALME-3M melanoma, in the test with OVCAR-5 ovarian and in the test on OVCAR-8 ovarian was greater than 100 µM throughout. Also, the TGI with RXF 393 renal, in the test on SF-539 CNS, in the test on SK-OV-3 ovarian and in the test with UACC-62 melanoma was greater than 100 µM in each case.
